Experimental data as given in PMC6522510 (Nature Communications, 2019).
Structures can show the parent of a compound that is named as a salt. Where two headings read alike, the source gives them in different places. Peptide text beside a SMILES is read from it.

Tests used:
Parameters in all cases: species or system AML cell lines (8); Primary HTS, single concentration about 10 uM, Cell Titer Glo viability; log10 luminescence, per cent inhibition relative to cycloheximide control
Conditions in all cases: 72 h, relative to cycloheximide control, log10 luminescence, inhibitor
[1] = system: MV4-11
[2] = system: ML-2
[3] = system: MOLM-13
[4] = system: CMS
[5] = system: M07e
[6] = system: CMK
[7] = system: CHRF288-11
[8] = system: U937

Compound	MV4-11 %inh [1]	ML-2 %inh [2]	MOLM-13 %inh [3]	CMS %inh [4]	M07e %inh [5]	CMK %inh [6]	CHRF288-11 %inh [7]	U937 %inh [8]	MV4-11 %inh ([1]; MV4-11 %inh, 10 µM)	ML-2 %inh ([2]; ML-2 %inh, 10 µM)	MOLM-13 %inh ([3]; MOLM-13 %inh, 10 µM)	CMS %inh ([4]; CMS %inh, 10 µM)	M07e %inh ([5]; M07e %inh, 10 µM)	CMK %inh ([6]; CMK %inh, 10 µM)	CHRF288-11 %inh ([7]; CHRF288-11 %inh, 10 µM)	U937 %inh ([8]; U937 %inh, 10 µM)
Cc1ccc(C(=O)Cn2c3c(sc2=N)CCCC3)cc1 [SJ000546523-1, PIFITHRIN-ALPHA HYDROBROMIDE | PIFITHRIN-ALPHA HYDROBROMIDE | | PIFITHRIN-ALPHA (PFTALPHA)]	4.352%	-0.3437%	4.765%	0.7689%	2.173%	3.731%	6.15%	-0.03033%	–	–	–	–	–	–	–	–
CN1C(=O)CC(C)(c2ccccc2)C1=O (centres unmarked) [SJ000552432-1, METHSUXIMIDE]	59.35%	19.33%	28.78%	-2.292%	28%	0.7754%	16.75%	35.22%	–	–	–	–	–	–	–	–
COc1cc2c(cc1OC)C(=O)C(CC1CCN(Cc3ccccc3)CC1)C2 (centres unmarked) [SJ000555704-1, DONEPEZIL HYDROCHLORIDE]	4.602%	0.002244%	1.714%	6.718%	3.462%	10.45%	3.237%	1.153%	–	–	–	–	–	–	–	–
C[C@]12C=CC(=O)C=C1CC[C@@H]1[C@@H]2[C@@H](O)C[C@@]2(C)[C@H]1CC[C@]2(O)C(=O)COP(=O)(O)O [SJ000555709-1, PREDNISOLONE SODIUM PHOSPHATE]	1.456%	-0.8263%	2.036%	9.04%	-1.037%	1.948%	1.976%	2.195%	–	–	–	–	–	–	–	–
Cc1nnc(C(C)C)n1[C@@H]1C[C@H]2CC[C@@H](C1)N2CC[C@H](NC(=O)C1CCC(F)(F)CC1)c1ccccc1 [SJ000555710-1, MARAVIROC]	0.334%	-1.344%	-2.386%	-2.259%	0.2532%	-4.287%	3.241%	-1.411%	–	–	–	–	–	–	–	–
CC[C@@H]([C@H](C)O)n1ncn(-c2ccc(N3CCN(c4ccc(OC[C@@H]5CO[C@@](Cn6cncn6)(c6ccc(F)cc6F)C5)cc4)CC3)cc2)c1=O [SJ000555711-1, POSACONAZOLE]	1.133%	-0.9552%	-0.6762%	1.852%	-0.5919%	-1.399%	4.654%	4.703%	–	–	–	–	–	–	–	–
CCOC(=O)C1=C[C@@H](OC(CC)CC)[C@H](NC(C)=O)[C@@H](N)C1 [SJ000555712-1, OSELTAMIVIR PHOSPHATE]	-1.699%	3.111%	-1.922%	1.863%	-1.677%	1.207%	-4.38%	-0.7037%	–	–	–	–	–	–	–	–
CC(=O)O[C@H]1C[C@@H]2CC[C@@H]3[C@H](CC[C@@]4(C)[C@H]3C[C@H](N3CC[N+](C)(C)CC3)[C@@H]4OC(C)=O)[C@@]2(C)C[C@@H]1N1CC[N+](C)(C)CC1 [SJ000555714-1, PIPECURIUM BROMIDE]	0.2738%	0.08837%	-1.447%	0.5876%	-1.4%	-9.103%	-2.142%	-1.326%	–	–	–	–	–	–	–	–
CC[N+](C)(CC)CCOC(=O)C(O)(c1ccccc1)C1CCCCC1 (centres unmarked) [SJ000555718-1, OXYPHENONIUM BROMIDE]	4.785%	3.325%	7.019%	-0.491%	-3.166%	0.4248%	89.25%	4.807%	–	–	–	–	–	–	–	–
CC(C)(C)C(=O)Oc1ccc(S(=O)(=O)Nc2ccccc2C(=O)NCC(=O)O)cc1 [SJ000556638-2, SIVELESTAT SODIUM SALT]	–	–	–	–	–	–	–	–	2.862%	1.02%	-1.5%	2.093%	0.385%	-3.181%	2.891%	-0.4301%
CC(C)(C)C(=O)Oc1ccc(S(=O)(=O)Nc2ccccc2C(=O)NCC(=O)O)cc1 [SJ000556638-3, SIVELESTAT SODIUM SALT]	–	–	–	–	–	–	–	–	-1.916%	0.7785%	-1.044%	-1.314%	0.5204%	-2.417%	-1.426%	-0.2709%
Cc1ccc(Nc2nccc(N(C)c3ccc4c(C)n(C)nc4c3)n2)cc1S(N)(=O)=O [SJ000556680-2, PAZOPANIB | 786034 | GSK-786034 | GW-786034 | GW-786034B | PAZOPANIB HCL (GW786034 HCL)]	69.1%	7.239%	85.38%	28.45%	33.41%	114.3%	59.62%	10.79%	–	–	–	–	–	–	–	–
C/C(O)=C(\C#N)C(=O)Nc1ccc(C(F)(F)F)cc1 [SJ000556684-2, TERIFLUNOMIDE]	2.233%	6.049%	8.514%	4.451%	0.1279%	2.602%	13.26%	-0.6256%	–	–	–	–	–	–	–	–
Cc1[nH]c(/C=C2\C(=O)Nc3ccccc32)c(C)c1CCC(=O)O [SJ000556685-2, ORANTINIB | SU-6668 | TSU-68 | TSU-68 (SU6668, ORANTINIB)]	14.82%	2.987%	33.6%	12.46%	0.796%	1.601%	14.71%	4.629%	–	–	–	–	–	–	–	–
CN(C(=O)c1cc2ccccc2cc1C(=O)C(c1cccc2ccccc12)P(=O)(O)O)C1CCN(C(=O)c2ccccc2)CC1 (centres unmarked) [SJ000556691-1, CATHEPSIN G INHIBITOR I]	1.483%	0.3338%	0.5105%	2.107%	0.0007022%	10.35%	9.27%	-1.516%	–	–	–	–	–	–	–	–
CO[C@@H]1[C@H](OC(=O)/C=C/C=C/C=C/C=C/C(=O)O)CC[C@]2(CO2)[C@H]1[C@@]1(C)O[C@@H]1CC=C(C)C [SJ000556696-1, FUMAGILLIN]	–	–	–	–	–	–	–	–	13.12%	2.951%	6.124%	10.64%	2.083%	-0.5821%	12.42%	19.23%
CO[C@@H]1[C@H](OC(=O)/C=C/C=C/C=C/C=C/C(=O)O)CC[C@]2(CO2)[C@H]1[C@@]1(C)O[C@@H]1CC=C(C)C [SJ000556696-2, FUMAGILLIN]	–	–	–	–	–	–	–	–	9.134%	3.251%	10.06%	7.757%	1.679%	-0.114%	24.31%	20.26%
CC(C)C[C@H](N)C(=O)N[C@H](C(=O)N[C@H](C(=O)N[C@@H](Cc1ccc(O)cc1)C(=O)N1CCC[C@H]1C(=O)N[C@@H](Cc1c[nH]c2ccccc12)C(=O)N[C@H](C(=O)O)[C@@H](C)O)C(C)C)C(C)C [SJ000556698-1, SPINORPHIN] (H-LVVYPWT-OH)	-0.248%	-1.792%	-0.8143%	4.762%	-3.453%	0.1545%	-1.007%	0.1872%	–	–	–	–	–	–	–	–
COc1ccc(S(=O)(=O)N2CCN(C(=O)c3ccc(-c4ccccc4)cc3)CC2C(=O)NO)cc1 (centres unmarked) [SJ000556700-1, N-HYDROXY-1-(4-METHOXYPHENYL)SULFONYL-4-(4-BIPHENYLCARBONYL)PIPERAZINE-2-CARBOXAMIDE]	72.89%	62.36%	33.07%	90.96%	105.4%	129.1%	142.9%	72.9%	–	–	–	–	–	–	–	–
